Data: publication PMC7734625, “Stabilization Strategies for Linear Minigastrin Analogues: Further Improvements via the Inclusion of Proline into the Peptide Sequence” (Journal of Medicinal Chemistry, 2020)
Like-named read-outs stand apart in the source and are kept apart here. One block for each compound: values may come before it. Non-standard residues stand in square brackets, D forms with d. Residues, ends and D or L forms follow the SMILES beside them. *: point of attachment. DOTA = O=C(O)CN1CCN(CC(=O)O)CCN(CC(=O)*)CCN(CC(=O)O)CC1; 1Nal = N[C@@H](Cc1cccc2ccccc12)C(=O)O; NMeNle = CCCC[C@H](NC)C(=O)O

Tests used:
[1] = log D, octanol/PBS distribution; format: physicochemical; conditions: 111In-labeled peptide
[2] = protein binding in human serum (Sephadex G-50 size-exclusion chromatography); format: in vitro ADME
Method: The protein binding in human serum (500 pmol/mL, n = 2) was assessed by Sephadex G-50 size-exclusion chromatography (GE Healthcare Illustra, Little Chalfont, U.K.) for up to 24 h.

[3] = in vivo stability studies in BALB/c mice; conditions: i.v.
Method: Metabolic studies evaluating the stability of the radioligands were carried out in 7- to 8-week-old female BALB/c mice. With the ^111In-labeled peptide derivatives, the studies were performed for the time point of 10 min p.i. (n = 2). With the ^177Lu-labeled peptide derivatives, additional studies were also carried out for the time point of 30 min and 60 min p.i. (n = 1 for each time point). To allow monitoring of the metabolites by analytical HPLC, the mice were injected with a higher amount of radioactivity (6–9 MBq indium-111, 30–45 MBq lutetium-177) corresponding to ∼1 nmol total peptide intravenously through a lateral tail vein. At different time points, the mice were euthanized by cervical dislocation and urine and a blood sample was collected. Liver and kidneys were excised and homogenized in 20 mM HEPES buffer pH 7.3. The amount of intact radiopeptide and the formation of metabolites was analyzed by analytical HPLC. Prior to injection into the HPLC system, all samples were treated as described for human serum and rat organ homogenate samples.

[4] = tested on: A431-CCK2R/A431-mock xenografts; assay: biodistribution in A431-CCK2R/A431-mock xenografted BALB/c nude mice; format: in vivo
Method: (§1) Biodistribution studies evaluating the tumor uptake of the radiolabeled peptides were performed in 7- to 9-week-old female athymic BALB/c nude mice (Charles River, Sulzfeld, Germany). For the induction of tumor xenografts, 150 μL of DMEM containing 2 × 10^6 A431-CCK2R and A431-mock cells were injected subcutaneously in the right and left flank of each mouse, respectively. And 10–14 days after injection, tumors reached a medium weight of ∼0.25 g. The mice were divided into groups of four and injected intravenously via a lateral tail vein with 0.2 MBq of ^111In-labeled compound (0.02 nmol) and 0.7 and 1.5 MBq of the ^177Lu-labeled compound (0.02 and 0.15 nmol). At 4 and 12 h p.i., the mice were sacrificed and the tumors and other tissues (blood, lung, heart, muscle, spleen, intestine, liver, kidneys, stomach, and pancreas) were removed, weighed, and their radioactivity measured in the γ counter together with the rest of the body. Initial biodistribution studies were performed with the three ^177Lu-labeled CCK2R-targeting ligands at an injected peptide amount of 20 pmol for the time point of 4 h p.i. From these studies, two peptide analogues were selected to further characterize the biodistribution profile also at a later time point of 12 h p.i. and at a higher injected peptide amount of 150 pmol. Additional animal studies were performed for the ^111In-labeled conjugates. Percentage of injected activity per gram tissue (%IA/g), tumor-to-organ activity ratios, as well as whole body activity were calculated for each sample and statistical analysis using independent two-population t-test (significance level p < 0.05) was performed using Origin software. For the comparison of more than two groups, data were analyzed using one-way analysis of variance (ANOVA) Holm–Bonferroni-adjusted post hoc analysis (significance level p < 0.05) using Microsoft Excel 2010 software (Microsoft Excel 2010, Microsoft Corporation, WA).

[5] = as above; format: in vivo; conditions: female, athymic BALB/c nude, mouse, iv, 20 pmol, total radioactivity, 20 pmol, 4 h p.i.
Method: as §1

[6] = 4 h after incubation, read-out: protein binding (%) 4 h (converted)
[7] = 24 h after incubation, read-out: protein binding (%) 24 h (converted)

logD [1]: -2.03 | fraction unbound [2, 6]: 0.555 | fraction unbound [2, 7]: 0.472
Structure (SMILES): CCCC[C@@H](C(=O)N[C@@H](CC(=O)O)C(=O)N[C@@H](Cc1cccc2ccccc12)C(N)=O)N(C)C(=O)[C@H](Cc1c[nH]c2ccccc12)NC(=O)CNC(=O)[C@H](Cc1ccc(O)cc1)NC(=O)[C@@H]1CCCN1C(=O)[C@@H](CCC(=O)O)NC(=O)CN1CCN(CC(=O)O)CCN(CC(=O)O)CCN(CC(=O)O)CC1 [[^111In]In-1, metal not drawn] ({DOTA}-[dE]PYGW[NMeNle]D[1Nal]-NH2)

logD [1]: -1.75 | fraction unbound [2, 6]: 0.432 | fraction unbound [2, 7]: 0.466
Structure (SMILES): CCCC[C@@H](C(=O)N[C@@H](CC(=O)O)C(=O)N[C@@H](Cc1cccc2ccccc12)C(N)=O)N(C)C(=O)[C@H](Cc1c[nH]c2ccccc12)NC(=O)CNC(=O)[C@@H]1CCCN1C(=O)[C@H](Cc1ccc(O)cc1)NC(=O)[C@@H](CCC(=O)O)NC(=O)CN1CCN(CC(=O)O)CCN(CC(=O)O)CCN(CC(=O)O)CC1 [[^111In]In-2, metal not drawn] ({DOTA}-[dE]YPGW[NMeNle]D[1Nal]-NH2)

intact radiopeptide in blood ([3]; 10 min p.i.): 82.3 ± 1.8% | intact radiopeptide in kidneys ([3]; 10 min p.i.): 30.2 ± 0.5% | intact radiopeptide in liver ([3]; 10 min p.i.): 73.9 ± 1.2% | intact radiopeptide in urine ([3]; 10 min p.i.): 30.3 ± 5.9%
Structure (SMILES): CCCC[C@@H](C(=O)N[C@@H](CC(=O)O)C(=O)N[C@@H](Cc1cccc2ccccc12)C(N)=O)N(C)C(=O)[C@H](Cc1c[nH]c2ccccc12)NC(=O)CNC(=O)[C@@H]1CCCN1C(=O)[C@H](Cc1ccc(O)cc1)NC(=O)[C@@H](CCC(=O)O)NC(=O)CN1CCN(CC(=O)O)CCN(CC(=O)O)CCN(CC(=O)O)CC1 [[^111In]In-2] [metal not drawn] ({DOTA}-[dE]YPGW[NMeNle]D[1Nal]-NH2)

logD [1]: -2.05 | fraction unbound [2, 6]: 0.588 | fraction unbound [2, 7]: 0.54
Structure (SMILES): CCCC[C@@H](C(=O)N[C@@H](CC(=O)O)C(=O)N[C@@H](Cc1cccc2ccccc12)C(N)=O)N(C)C(=O)[C@H](Cc1c[nH]c2ccccc12)NC(=O)[C@@H]1CCCN1C(=O)[C@H](Cc1ccc(O)cc1)NC(=O)[C@H](C)NC(=O)[C@@H](CCC(=O)O)NC(=O)CN1CCN(CC(=O)O)CCN(CC(=O)O)CCN(CC(=O)O)CC1 [[^111In]In-3, metal not drawn] ({DOTA}-[dE]AYPW[NMeNle]D[1Nal]-NH2)

intact radiopeptide in blood ([3]; 60 min p.i., n = 1): 79.1% | intact radiopeptide in kidneys ([3]; 60 min p.i., n = 1): 11.0% | intact radiopeptide in liver ([3]; 60 min p.i., n = 1): 74.5% | intact radiopeptide in urine ([3]; 60 min p.i., n = 1): 18.8% | tumor uptake in A431-CCK2R xenografts ([4]; 150 pmol, 4 h p.i.): 15.26 ± 6.84 % IA/g | tumor retention ([4]; A431-CCK2R xenografts, 12 h p.i. relative to 4 h p.i., 20 pmol): > 60% | reduction of tumor uptake in A431-CCK2R xenografts ([4]; injected peptide amount increased to 150 pmol vs 20 pmol, 4 h p.i.): about 50%
Structure (SMILES): CCCC[C@@H](C(=O)N[C@@H](CC(=O)O)C(=O)N[C@@H](Cc1cccc2ccccc12)C(N)=O)N(C)C(=O)[C@H](Cc1c[nH]c2ccccc12)NC(=O)CNC(=O)[C@@H]1CCCN1C(=O)[C@H](Cc1ccc(O)cc1)NC(=O)[C@@H](CCC(=O)O)NC(=O)CN1CCN(CC(=O)O)CCN(CC(=O)O)CCN(CC(=O)O)CC1 [[^177Lu]Lu-2] [metal not drawn] ({DOTA}-[dE]YPGW[NMeNle]D[1Nal]-NH2)

intact radiopeptide in blood ([3]; 60 min p.i., n = 1): 63.5% | intact radiopeptide in kidneys ([3]; 60 min p.i., n = 1): 7.2% | intact radiopeptide in liver ([3]; 60 min p.i., n = 1): 35.6% | intact radiopeptide in urine ([3]; 60 min p.i., n = 1): 20.6% | tissue to tissue ratio at 4 h ([5]; A431-CCK2R xenograft tumor / blood, read-out: tumor-to-blood ratio): 709 ± 470 | tissue to tissue ratio at 4 h ([5]; A431-CCK2R xenograft tumor / kidney, read-out: tumor-to-kidney ratio): 4.52 ± 1.41 | tissue to tissue ratio at 4 h ([5]; A431-CCK2R xenograft tumor / liver, read-out: tumor-to-liver ratio): 58 ± 19.2 | tissue to tissue ratio at 4 h ([5]; A431-CCK2R xenograft tumor / stomach, read-out: tumor-to-stomach ratio): 6.49 ± 1.32 | tissue uptake at 4 h ([5]; A431-CCK2R xenograft tumor, read-out: tumor uptake in A431-CCK2R xenografts): 28.6 ± 7.95 %ID/g | tissue uptake at 4 h ([5]; A431-mock xenograft tumor, read-out: uptake in A431-mock xenografts): 0.25 ± 0.06 %ID/g | tissue uptake at 4 h ([5]; blood, read-out: uptake in blood): 0.06 ± 0.03 %ID/g | tissue uptake at 4 h ([5]; heart, read-out: uptake in heart): 0.08 ± 0.01 %ID/g | tissue uptake at 4 h ([5]; intestine, read-out: uptake in intestine): 0.95 ± 0.23 %ID/g | tissue uptake at 4 h ([5]; kidney, read-out: uptake in kidney): 6.61 ± 1.75 %ID/g | tissue uptake at 4 h ([5]; liver, read-out: uptake in liver): 0.52 ± 0.12 %ID/g | tissue uptake at 4 h ([5]; lung, read-out: uptake in lung): 0.17 ± 0.05 %ID/g | tissue uptake at 4 h ([5]; muscle, read-out: uptake in muscle): 0.09 ± 0.05 %ID/g | tissue uptake at 4 h ([5]; pancreas, read-out: uptake in pancreas): 1.78 ± 0.72 %ID/g | tissue uptake at 4 h ([5]; spleen, read-out: uptake in spleen): 0.19 ± 0.02 %ID/g | tissue uptake at 4 h ([5]; stomach, read-out: uptake in stomach): 4.73 ± 2.29 %ID/g
Structure (SMILES): CCCC[C@@H](C(=O)N[C@@H](CC(=O)O)C(=O)N[C@@H](Cc1cccc2ccccc12)C(N)=O)N(C)C(=O)[C@H](Cc1c[nH]c2ccccc12)NC(=O)[C@@H]1CCCN1C(=O)[C@H](Cc1ccc(O)cc1)NC(=O)[C@H](C)NC(=O)[C@@H](CCC(=O)O)NC(=O)CN1CCN(CC(=O)O)CCN(CC(=O)O)CCN(CC(=O)O)CC1 [[^177Lu]Lu-3, metal not drawn] ({DOTA}-[dE]AYPW[NMeNle]D[1Nal]-NH2)
